Consider 3 molecules from ChEMBL document CHEMBL3508693 (2016).

The nature of data set [1]: Terminal elimination half-life of SPP100 following single oral dose of SPP100 300 mg capsule studied in healthy human. The class given is ADME, organism-based. The note with it: plasma.
Data set [2] is described as follows: % SPP100 recovered in hydrolysed following single intravenous administration of 10 mg.Kg-1 [14C] aliskiren hemifumarate in male rat. The data set is classed as ADME, organism-based, HAN:WIST(SPF), Bile. The following applies: in vivo.
Another data set addresses T1, CYP1A2 (Homo sapiens, UniProt P05177).
T1 sequence (P05177 whole entry): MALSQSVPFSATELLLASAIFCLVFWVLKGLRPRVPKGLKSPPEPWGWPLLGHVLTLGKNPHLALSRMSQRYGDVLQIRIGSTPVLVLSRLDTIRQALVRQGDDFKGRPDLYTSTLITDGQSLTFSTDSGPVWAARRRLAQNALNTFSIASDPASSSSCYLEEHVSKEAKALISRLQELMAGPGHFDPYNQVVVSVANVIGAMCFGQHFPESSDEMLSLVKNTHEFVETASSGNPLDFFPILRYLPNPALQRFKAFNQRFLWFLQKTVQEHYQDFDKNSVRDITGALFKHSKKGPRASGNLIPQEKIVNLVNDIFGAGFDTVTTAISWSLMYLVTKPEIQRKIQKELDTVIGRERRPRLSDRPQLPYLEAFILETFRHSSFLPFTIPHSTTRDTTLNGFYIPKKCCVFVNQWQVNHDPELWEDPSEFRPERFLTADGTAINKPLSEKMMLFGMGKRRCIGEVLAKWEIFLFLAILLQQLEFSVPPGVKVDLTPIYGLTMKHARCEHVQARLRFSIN
The experiment in a line: Inhibitory activity of 20 uM SPP100 on 502 Pmoles of cDNA-derived CYP1A2 enzyme in microsome prepared from human lymphoblastoid cell line. The class given is ADME, microsomes. Also noted: conc 20 uM, interact cpd conc 50 uM. The following applies: probe phenacetin.

A further data set concerns the target T2, CYP2A6 (Homo sapiens, UniProt P11509).
T2 sequence (P11509 whole entry): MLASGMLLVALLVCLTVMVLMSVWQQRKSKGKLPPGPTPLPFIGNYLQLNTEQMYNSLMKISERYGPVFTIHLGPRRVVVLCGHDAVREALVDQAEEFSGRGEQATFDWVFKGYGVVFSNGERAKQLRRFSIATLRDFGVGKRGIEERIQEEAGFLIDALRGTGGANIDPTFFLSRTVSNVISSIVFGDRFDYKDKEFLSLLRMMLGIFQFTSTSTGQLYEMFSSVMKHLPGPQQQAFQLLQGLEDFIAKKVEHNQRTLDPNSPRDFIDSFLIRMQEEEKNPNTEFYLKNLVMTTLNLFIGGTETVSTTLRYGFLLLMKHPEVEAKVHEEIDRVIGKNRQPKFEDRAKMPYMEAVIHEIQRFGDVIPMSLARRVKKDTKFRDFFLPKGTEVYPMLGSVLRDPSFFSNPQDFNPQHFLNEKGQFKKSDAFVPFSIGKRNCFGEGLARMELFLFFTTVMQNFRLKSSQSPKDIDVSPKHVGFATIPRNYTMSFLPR
Kind of data set: Inhibitory activity of 20 uM SPP100 on 37 Pmoles of cDNA-derived CYP2A6 enzyme in microsome prepared from human lymphoblastoid cell line. The data set is classed as ADME, microsomes. The following applies: probe coumarine. More on the design: conc 20 uM, interact cpd conc 3 uM.

Data set [3] can be described thus: Bioavailability of aliskiren in receiver rat following duodenal infusion of radioactivity through bile from donor rat treated with single intravenous administration of 10 mg.Kg-1 [14C] aliskiren hemifumarate. The note with it: in vivo. The class given is ADME, organism-based, HAN:WIST(SPF).
Data set [4] in a line: Concentration of radioactivity in the liver following repeated oral administration of [14C] aliskiren hemifumarate at 100 mg.Kg-1 level studied at 2h after 7th dose in rat. The note with it: in vivo. The data set is classed as ADME, organism-based, Albino HAN:WIST.
A short description of data set [5]: Excretion of radioactivity (0-24h) in urine following single oral dose of 500 mg.Kg-1 [14C] aliskiren hemifumarate in mouse. The class given is ADME, organism-based, TgRasH2. The following applies: in vivo.
Data set [6] in a line: Concentration of radioactivity in carcass following oral administration of [14C] aliskiren hemifumarate at 100 mg.Kg-1 level measured on day 7 in rat. The data set is classed as ADME, organism-based, Lister-Hooded. The following applies: in vivo.
The nature of data set [7]: Excretion of radioactivity (0-24h) in faeces following single intravenous dose of 10 mg.Kg-1 [14C] aliskiren hemifumarate in mouse. The class given is ADME, organism-based, TgRasH2, Feces. The note with it: in vivo.
Data set [8] in a line: Concentration of radioactivity in the brown fat following repeated oral administration of [14C] aliskiren hemifumarate at 100 mg.Kg-1 level studied at 24h after 10th dose in rat. The data set is classed as ADME, organism-based, Albino HAN:WIST, Brown adipose tissue. The following applies: in vivo.
Data set [9] in a line: Cmax (0-96h) of total radioactivity following oral administration of [14C] aliskiren hemifumarate at 100 mg.Kg-1 level in rat. The class given is ADME, organism-based, Albino HAN:WIST, Plasma. The following applies: in vivo.
A short description of data set [10]: % of radioactivity (48h) recovered in cage wash of receiver rat following duodenal infusion of radioactivity through bile from donor rat treated with single intravenous administration of 10 mg.Kg-1 [14C] aliskiren hemifumarate. The following applies: in vivo. The class given is ADME, organism-based, HAN:WIST(SPF).
Data set [11] is described as follows: Concentration of radioactivity in the colon wall following repeated oral administration of [14C] aliskiren hemifumarate at 100 mg.Kg-1 level studied at 24h after 3rd dose in rat. The class given is ADME, organism-based, Albino HAN:WIST. The following applies: in vivo.
In the next data set the target is Cytochrome P450 2D6 (Homo sapiens, UniProt P10635). The experiment in a line: Involvement of CYP2D6 in the metabolism of [14C] aliskiren hemifumarate based on studies with microsomes from baculovirus-infected insect cells expressing recombinant human CYP450s and studies with pooled human liver microsomes from 22 donors. The class given is ADME, Microsome. On the technique in general: Liver microsomes are a subcellular fraction often used to study metabolism.

Data set [12] is described as follows: Excretion (24h) of radioactivity in faeces following oral administration of [14C] aliskiren hemifumarate at 100 mg.Kg-1 level in rat. The class given is ADME, organism-based, Lister-Hooded, Feces. The following applies: in vivo.
The nature of data set [13]: Tmax of aliskiren hemifumarate following 2 week oral dosing of aliskiren hemifumarate at 10 mg.Kg-1 level studied on day 1 in male Callithrix jacchus. The class given is ADME, organism-based. The note with it: marmoset, plasma.
Data set [14] can be described thus: t1/2 of aliskiren hemifumarate following 2 week oral dosing of aliskiren hemifumarate at 50 mg.Kg-1 level studied on day 1 in male Callithrix jacchus. The class given is ADME, organism-based. The following applies: marmoset, plasma.
A short description of data set [15]: Cmaxspec of aliskiren hemifumarate following 2 week oral dosing of aliskiren hemifumarate at 10 mg.Kg-1 level studied on day 1 in male Callithrix jacchus. The data set is classed as ADME, organism-based, Plasma. The note with it: marmoset, in vivo, 336 h.
Data set [16] is described as follows: Tmax of aliskiren hemifumarate following 2 week oral dosing of aliskiren hemifumarate at 50 mg.Kg-1 level studied on day 14 in female Callithrix jacchus. The class given is ADME, organism-based. The note with it: marmoset, plasma.
Data set [17] is described as follows: Effect of 2 week oral dosing of aliskiren hemifumarate at 50 mg.Kg-1 level on hematological parameter values in female Callithrix jacchus. The class given is toxicity, organism-based, Plasma. The note with it: marmoset, in vivo, 336 h.
A short description of data set [18]: Tmax of aliskiren hemifumarate following 8 day once-daily dosing of SPP100B oral solution at 160 mg level studied on day 8 in men. The following applies: male, human, plasma. The class given is ADME, organism-based.
The nature of data set [19]: Cmax of aliskiren hemifumarate following single dosing of SPP100B oral solution at 40 mg level studied on day 1 in men. The class given is ADME, organism-based. The following applies: male, human, plasma.
The nature of data set [20]: AUC(0-24h) of aliskiren hemifumarate following 2 week oral dosing of aliskiren hemifumarate at 100 mg.Kg-1 level studied on day 14 in female Callithrix jacchus. The following applies: marmoset, plasma. The data set is classed as ADME, organism-based.
The nature of data set [21]: Hepatic blood flow (0-168h) of unlabeled aliskiren hemifumarate following single intravenous administration of aliskiren hemifumarate at 1 mg.Kg-1 level in marmoset. The class given is ADME, organism-based, Callithrix jacchus, Liver. The note with it: in vivo.
The nature of data set [22]: Cmax of aliskiren hemifumarate following 4 week oral dietary dosing of aliskiren hemifumarate at 500 mg.Kg-1 level in male mouse. The data set is classed as ADME, organism-based. The following applies: CB6F1-TGrasH2, mouse, in vivo.
Data set [23] in a line: Cmax/dose of aliskiren hemifumarate following 4 week oral dietary dosing of aliskiren hemifumarate at 2000 mg.Kg-1 level in male mouse. The note with it: in vivo, 672 h. The class given is ADME, organism-based, CB6F1-TGrasH2.
The nature of data set [24]: AUC of aliskiren hemifumarate following 8 day once-daily dosing of SPP100B oral solution at 640 mg level studied on day 8 in men. The class given is ADME, organism-based. The following applies: male, human, plasma.

Chain of Cytochrome P450 2D6 (P10635 whole entry): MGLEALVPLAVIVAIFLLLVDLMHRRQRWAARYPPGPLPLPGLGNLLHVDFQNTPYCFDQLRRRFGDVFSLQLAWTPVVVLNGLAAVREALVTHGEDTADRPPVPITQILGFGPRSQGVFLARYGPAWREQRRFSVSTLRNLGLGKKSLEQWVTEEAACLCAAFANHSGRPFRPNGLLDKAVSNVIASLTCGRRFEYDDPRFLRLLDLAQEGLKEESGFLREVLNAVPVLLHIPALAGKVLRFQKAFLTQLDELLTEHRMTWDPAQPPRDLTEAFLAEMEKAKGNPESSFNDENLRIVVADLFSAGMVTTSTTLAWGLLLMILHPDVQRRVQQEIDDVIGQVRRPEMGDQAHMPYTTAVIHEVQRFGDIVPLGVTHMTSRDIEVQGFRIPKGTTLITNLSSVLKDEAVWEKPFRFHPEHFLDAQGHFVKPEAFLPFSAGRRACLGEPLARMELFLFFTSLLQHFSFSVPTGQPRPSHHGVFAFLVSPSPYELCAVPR

In turn, `COCCCOc1cc(C[C@@H](C[C@H](N)[C@@H](O)C[C@H](C(=O)NCC(C)(C)C(N)=O)C(C)C)C(C)C)ccc1OC` had a half-life in data set [1] of 37 h. This molecule had a Compound recovery in data set [2] of 61.8%. For the same molecule, the inhibition at 20 µM against CYP1A2 was 2.5%; against CYP2A6, 2.6%. Besides, the F in data set [3] is recorded as below 3%.
For the molecule `COCCCOc1cc(C[C@@H](C[C@H](N)[C@@H](O)C[C@H](C(=O)NCC([14CH3])([14CH3])C(N)=O)C(C)C)C(C)C)ccc1OC.O=C(O)/C=C/C(=O)O`, the Radiolabel recovery entry in [4] is “OUTCOME = Detected”; in data set [5] it was 0.47%; in data set [6] it was “OUTCOME = Observed, VALUE = residues of radioactivity remained in the carcass at 7 days after dosing”; in [7], 84.68%; in [8], “OUTCOME = Detected”; in [10], 4%. Besides, the Radiolabel recovery result in data set [11] is “OUTCOME = Observed, VALUE = Highest radioactivity concentration was observed”; in data set [12], 86%. The maximum concentration (Cmax) in data set [9] was 0.416 µM; in [9] (iv, 10 mg/kg) it was 21.2 µM. The Activity result on Cytochrome P450 2D6 is given as “OUTCOME = Observed, VALUE = CYP2D6 contributed to a minor extent on metabolism of aliskiren”.
`COCCCOc1cc(C[C@@H](C[C@H](N)[C@@H](O)C[C@H](C(=O)NCC(C)(C)C(N)=O)C(C)C)C(C)C)ccc1OC.COCCCOc1cc(C[C@@H](C[C@H](N)[C@@H](O)C[C@H](C(=O)NCC(C)(C)C(N)=O)C(C)C)C(C)C)ccc1OC.O=C(O)/C=C/C(=O)O` [ALISKIREN FUMARATE]: the Tmax turned out to be 1 h in data set [13], 1 h in data set [16] and 4.1 h in [18]. The molecule further had a half-life in data set [14] of 7.37 h. Besides, the Cmax normalised in data set [15] is given as 0.396 (ug/ml)/(mg/kg); in data set [23], 0.22 (ng/mL)/(mg/kg/day). The Change in hematology result in data set [17] is recorded as “OUTCOME = Hematological parameter values did not differ from control values. No animals died during the study”. For the same molecule, the figures for the Cmax in [19] and in data set [22] were 5.1 ng/mL and 312 ng/mL, respectively. Moreover, the AUC at 24 h in [20] worked out at 142000 ng·h/mL. The Hepatic blood flow in data set [21] is 2.8 L·h/kg. The molecule further gave an AUC at 192 h in [24] of 2970 ng·h/mL.

What is called half-life is the time in which the quantity being followed falls by half. A low value points to rapid decline. What is called inhibition is the share of the control response that was lost under treatment. A higher inhibition goes with strong suppression. For orientation: Cmax means the peak of the concentration-time curve. The term Tmax denotes the time at which the peak concentration occurs. As usually defined, the AUC is concentration integrated over time.
